Patent publication US9079886B2, “Substituted triazole derivatives as gamma secretase modulators” (Janssen Pharmaceuticals, Inc., priority 2010, dated 2015)
Read-outs that look alike come from different tables or passages of the source.

What was measured:
[1] = Central brain availability: compound levels in plasma and brain; assay type: in vivo; conditions: mouse, dose 30 mg/kg oral dosing
Experimental: (§1) A typical protocol for measuring Aβ42 lowering in vivo is shown but it is only one of many variations that could be used to optimize the levels of detectable Aβ. For example, Aβ42 lowering compounds were formulated in 20% of Captisol® (a sulfobutyl ether of β-cyclodextrin) in water or 20% hydroxypropyl β cyclodextrin. The Aβ42 lowering agents were administered as a single oral dose or by any acceptable route of administration to overnight fasted animals. After 4 h, the animals were sacrificed and Aβ42 levels were analysed.
(§2) Blood was collected by decapitation and exsanguinations in EDTA-treated collection tubes. Blood was centrifuged at 1900 g for 10 minutes (min) at 4° C. and the plasma recovered and flash frozen for later analysis. The brain was removed from the cranium and hindbrain. The cerebellum was removed and the left and right hemisphere were separated. The left hemisphere was stored at −18° C. for quantitative analysis of test compound levels. The right hemisphere was rinsed with phosphate-buffered saline (PBS) buffer and immediately frozen on dry ice and stored at −80° C. until homogenization for biochemical assays.
Also the central brain availability of Compounds 3, 5, 10 and A were measured:
The results are shown in Table 5 (dose 30 mg/kg oral dosing; 4 hours): […]

[2] = Liver metabolic stability assay, mouse liver microsomes; assay type: in vitro ADME; conditions: 1 μM substrate, 1 mg/ml protein, 37° C., 15 minutes
Experimental: (§3) Each compound was spiked into a suspension of liver microsomes prepared from the species under investigation, at a final substrate concentration of 1 μM, and a protein concentration of 1 mg/ml, and pre-incubated at 37° C. for 11 minutes. The incubation also contains a NADPH (3-nicotinamide adenine dinucleotide phosphate, reduced) regenerating system. After this preincubation period, NADP (β-nicotinamide adenine dinucleotide phosphate) was added to the active incubations, and the incubations maintained at 37° C. for 15 minutes, during which period metabolism can take place. After 15 minutes, 2 volumes of DMSO (dimethylsulfoxide) were added to each active incubation to inactivate and precipitate proteins. Control incubations were not preincubated at 37° C., but instead were quenched by the addition of DMSO prior to the addition of NADP. Following centrifugation, the supernatant from each incubation was transferred to a separate analysis plate, and analysed for the concentration of the parent compound by LC/MS/MS using a compound-specific LC/MS/MS method and a generic HPLC gradient. The turnover of the parent compound is expressed as the % reduction in concentration in the analyte samples compared to that in the control incubations. Each incubation is performed in triplicate.

[3] = Liver metabolic stability assay, human liver microsomes; assay type: in vitro ADME; conditions: 1 μM substrate, 1 mg/ml protein, 37° C., 15 minutes
Experimental: as §3

[4] = test system: Aβ42 and Aβtotal in the soluble fraction of brain homogenates; assay: In vivo Aβ42 lowering: brain soluble Aβ42 and Aβtotal by ELISA after a single oral dose; set-up: species or system mouse; conditions: Mus musculus, po, 4 h, dose 30 mg/kg oral dosing, 4 h after dosing
Excerpt: To determine whether acute administration of an Aβ42 lowering agent would reduce Aβ42 levels in vivo, non-transgenic rodents, e.g. mice or rats were used. Animals treated with the Aβ42 lowering agent were examined and compared to those untreated or treated with vehicle and brain levels of soluble Aβ42 and total A13 were quantitated by standard techniques, for example, using ELISA. Treatment periods varied from hours (h) to days and were adjusted based on the results of the Aβ42 lowering once a time course of onset of effect could be established.
as §1, §2
Mouse brains from non-transgenic animals were resuspended in 8 volumes of 0.4% DEA (diethylamine)/50 mM NaCl containing protease inhibitors (Roche-11873580001 or 04693159001) per gram of tissue, e.g. for 0.158 g brain, add 1.264 ml of 0.4% DEA. All samples were homogenized in the FastPrep-24 system (MP Biomedicals) using lysing matrix D (MPBio #6913-100) at 6 m/s for 20 seconds. Homogenates were centrifuged at 221.300×g for 50 min. The resulting high speed supernatants were then transferred to fresh eppendorf tubes. Nine parts of supernatant were neutralized with 1 part 0.5 M Tris-HCl pH 6.8 and used to quantify Aβtotal and Aβ42.
To quantify the amount of Aβtotal and Aβ42 in the soluble fraction of the brain homogenates, Enzyme-Linked-Immunosorbent-Assays were used. Briefly, the standards (a dilution of synthetic Aβ1-40 and Aβ-42, Bachem) were prepared in 1.5 ml Eppendorf tube in Ultraculture, with final concentrations ranging from 10000 to 0.3 pg/ml. The samples and standards were co-incubated with HRPO-labelled N-terminal antibody for Aβ42 detection and with the biotinylated mid-domain antibody 4G8 for Aβtotal detection. 50 μl of conjugate/sample or conjugate/standards mixtures were then added to the antibody-coated plate (the capture antibodies selectively recognize the C-terminal end of Aβ42, antibody JRF/cAB42/26, for Aβ42 detection and the N-terminus of Aβ, antibody JRF/rAβ/2, for Aβtotal detection). The plate was allowed to incubate overnight at 4° C. in order to allow formation of the antibody-amyloid complex. Following this incubation and subsequent wash steps the ELISA for Aβ42 quantification was finished by addition of Quanta Blu fluorogenic peroxidase substrate according to the manufacturer's instructions (Pierce Corp., Rockford, Il). A reading was performed after 10 to 15 min (excitation 320 nm/emission 420 nm).
For Aβtotal detection, a Streptavidine-Peroxidase-Conjugate was added, followed 60 min later by an addional wash step and addition of Quanta Blu fluorogenic peroxidase substrate according to the manufacturer's instructions (Pierce Corp., Rockford, Il). A reading was performed after 10 to 15 min (excitation 320 nm/emission 420 nm). […]

[5] = untreated animals (Ctrl) set at 100, read-out: Aβ42 (% vs Ctrl) _Mean
[6] = untreated animals (Ctrl) set at 100, read-out: Aβtotal (% vs Ctrl)_Mean

concentration at 4 h ([1]; brain, read-out: Brain) | concentration at 4 h ([1]; plasma, read-out: Plasma) | turnover of the parent compound (% reduction in concentration vs control incubations), mouse liver microsomes [2] | melting point | turnover of the parent compound (% reduction in concentration vs control incubations), human liver microsomes [3] | Compound | response vs control in vivo at 30 mg/kg [4, 5] | response vs control in vivo at 30 mg/kg [4, 6]
8510 ng/g | 7740 ng/mL | – | – | – | COc1cc(Nc2nc(Oc3ccccc3Cl)n(C(C)C)n2)ccc1-n1cnc(C)n1 [Compound 3] | – | –
4640 ng/g | 2700 ng/mL | 10% | 247.1 °C | 14% | COc1cc(Nc2nc(-c3ccc(F)cc3)n(C)n2)ccc1-n1cnc(C)c1 [Compound 10] | 68% | 110%
1630 ng/g | 1630 ng/mL | – | 166.6 °C | – | COc1cc(Nc2nc(Oc3cccc(C(F)(F)F)c3)n(C(C)C)n2)ccc1-n1cnc(C)n1 [Compound 5] | – | –
– | – | – | 167.1 °C | – | COc1cc(Nc2nc(Oc3ccccc3Cl)n(C(C)C)n2)ccc1-n1cnc(C)c1 [Compound 52] | 45% | 112%
– | – | – | 173 °C | – | COc1cc(Nc2nc(N3CCCC(C(F)(F)F)C3)n(C(C)C)n2)ccc1-n1cnc(C)c1 (stereo not drawn) [Compound 54] | 46% | 88%
– | – | – | 142.5 °C | – | Cc1cc(-c2ccc(Nc3nc(Oc4ccccc4Cl)n(C(C)C)n3)cc2)ccn1 [Compound 140] | 83% | 86%
0 ng/g | 0 ng/mL | 22% | – | 64% | COc1cc(Nc2nnc(-c3ccc(F)cc3)[nH]2)ccc1-n1cnc(C)c1 [Compound A, reference compound] | 101% | 106%
– | – | – | 186.8 °C | – | COc1cc(Nc2nc(-c3cccc(C(F)(F)F)c3)n(C(C)C)n2)ccc1-n1cnc(C)c1 [Compound 46] | 61% | 98%
